Patent US8673870B2 (priority 2002, dated 2014)
Several values for one entry are separate records, joined by “and”; a condition that tells them apart may be missing. Equal values may be shown once.

Experiments:
[1] = system: Recombinant human RARα protein (rhRARα); set-up: species or system mice; conditions: in vivo
[2] = system: APL cells; set-up: species or system mice; conditions: mouse, in vivo
[3] = system: fragment C; conditions: in vivo
[4] = system: spleen cells stimulated with irradiated APL cells; experiment: Cytokine release assay (Th1/Th2 cytometric bead array); format: cell-based, mice
Procedure: Long term survivors (post day 300 illustrated in FIG. 2B) were sacrificed and tested for proliferation and cytokine release. Briefly, 5×10^5 responders (spleen cells from FVB/N injected with APL cells and treated with ATRA+PML-RARα-FrC or ScFvBCL1-FrC) were plated in each well with 200 μl of media consisting of RPMI 1640, 10% FCS and 0.5% […]. Spleen cells from healthy mice treated with ATRA. Stimulators (spleen cells from FVB/N, APL or BALB/c) were irradiated with 25 Gy and 1×10^6 cells were added to each well. After 24, 48 and 72 hours of incubation cells were assayed for ^3H-thymidine incorporation and supernatants were harvested for cytokine release assays. Cultures were set up in duplicate.
Cytokine release was measured using a mouse Th1/Th2 cytokine cytometric bead array kit according to the manufacturer's protocols (Becton, Dickinson, Pharmingen, San Jose, Calif.). This kit measures cytokines IL-2, IL-4, IL-5, IFN-γ and TNF-α. Long-term survivors of the mice from the protocol illustrated in FIG. 8, were sacrificed and spleen cells were cultured as described above. Briefly, 50 μl of supernatant was incubated with 50 μl of the mixed capture beads and 50 μl of the mouse Th1/Th2 PE detection reagent for 2 hours and analyzed on a FACSCalibur cytometer. Analysis was undertaken using the BD CBA (Becton Dickinson, Pharmingen) and Cell Quest software.

| Compound | Antibodies against RARα detected by ELISA, in words [1] | RARα Ab positive (%) [1] | RARα Ab positive: mice with detectable antibodies/mice alive [1] | Survival versus comparison arms (Kaplan Meier), in words [2] | Survival: No. mice/total [2] | Time to relapse and death post transplant ([2]; sc) | Antibody response to fragment C (mice responding/mice tested) [3] | IFN-γ release ([4]; 48 hours of culture, irradiated APL cells as stimulators, ATRA alone = spleen cells from healthy mice) [pg/mL] | Lifespan, in words [2] | TNFα ([4]; with ATRA, approximately one year from injection of APL cells) |
| --- | --- | --- | --- | --- | --- | --- | --- | --- | --- | --- |
| CC1=C(/C=C/C(C)=C/C=C/C(C)=C/C(=O)O)C(C)(C)CCC1 [ATRA, all-trans retinoic acid] | Significant levels of antibodies against RARα were detected | 7/12 (58%) and 4/5 (80%) | 0/12 and 7/12 (58%) and 4/5 (80%) | all of the mice relapse and die | 24/24 (100%) and 5/24 (21%) and 0/24 (0%) | 6-12 weeks | no antibodies to fragment C was detected | 52 |  |  |
| ScFvBCL1-FrC: ScFv construct of King et al 1998 from a lymphoma patient fused in frame to BCL1 leader and fragment C (SEQ ID NO:11) |  |  |  |  |  |  |  |  | extended lifespan | increases in TNFα |
